Measurements taken from the NIST ThermoML archive (doi:10.1021/je049953t).
Numbers after ± are expanded uncertainties.

Key:
[1] = 298.15 K; 101.33 kPa; Liquid
[2] = excess molar enthalpy (molar enthalpy of mixing); xn = mol fraction of the nth substance listed; details: 101.33 kPa, Liquid, Flow calorimetry

| mass density [1] | excess molar enthalpy ([2]; 298.15 K, x1 = 0.03) | excess molar enthalpy ([2]; 298.15 K, x1 = 0.0611) | excess molar enthalpy ([2]; 298.15 K, x1 = 0.0613) | excess molar enthalpy ([2]; 298.15 K, x1 = 0.094) | excess molar enthalpy ([2]; 298.15 K, x1 = 0.9462) | excess molar enthalpy ([2]; 313.15 K, x1 = 0.03) | excess molar enthalpy ([2]; 313.15 K, x1 = 0.0611) | excess molar enthalpy ([2]; 313.15 K, x1 = 0.0613) | excess molar enthalpy ([2]; 313.15 K, x1 = 0.094) | excess molar enthalpy ([2]; 313.15 K, x1 = 0.1281) | excess molar enthalpy ([2]; 313.15 K, x1 = 0.9178) | excess molar enthalpy ([2]; 313.15 K, x1 = 0.9462) | excess molar enthalpy ([2]; 313.15 K, x1 = 0.9469) | SMILES |
| --- | --- | --- | --- | --- | --- | --- | --- | --- | --- | --- | --- | --- | --- | --- |
| 648.45 ± 0.44 kg/m3 | – | – | – | – | – | – | – | – | – | – | – | – | – | CCCC(C)C [2-methylpentane] |
| – | 0.0551 ± 0.00148 kcal/mol | 0.105 ± 0.00239 kcal/mol | 0.105 ± 0.00239 kcal/mol | 0.154 ± 0.00335 kcal/mol | 0.112 ± 0.00239 kcal/mol | 0.0551 ± 0.00148 kcal/mol | 0.107 ± 0.00239 kcal/mol | 0.108 ± 0.00239 kcal/mol | 0.157 ± 0.00359 kcal/mol | 0.202 ± 0.0043 kcal/mol | 0.174 ± 0.00382 kcal/mol | 0.113 ± 0.00263 kcal/mol | 0.11 ± 0.00263 kcal/mol | CCCC(C)C [2-methylpentane] + CN(C)C=O |
| 943.81 ± 0.15 kg/m3 | – | – | – | – | – | – | – | – | – | – | – | – | – | CN(C)C=O [dimethylformamide] |
